Laboratory results from paper PMC2654246 (The Journal of neuroscience : the official journal of the …, 2009).
Marks after values point to notes of the source that are not given here.

Tests used:
αS269Cβγδ nAChR = αS269Cβγδ nAChR (Mus musculus, UniProt P02716+P04756+P04760, S289C); assay: Effect of MTS reagent application on subsequent ACh induced current; assay type: cell-based; settings: αS269C; MTSES 5 mM, 2 min; ACh EC30-70
αS268Cβγδ nAChR = αS268Cβγδ nAChR (Mus musculus, UniProt P02716+P04756+P04760, S288C); assay: as above; assay type: cell-based; settings: αS268C
[1] = test system: nAChR α-subunit single Cys mutants (αβγδ); settings: 2 min, αA270C, αL273C, αI274C, αK276C, αY277C
αV271Cβγδ nAChR = αV271Cβγδ nAChR (Mus musculus, UniProt P02716+P04756+P04760, V291C); assay: Rates of reaction of engineered Cys with MTSEA; assay type: cell-based; settings: MTSEA with ACh (EC80-EC100)
αE262Cβγδ nAChR = αE262Cβγδ nAChR (Mus musculus, UniProt P02716+P04756+P04760, E282C); assay: Rates of reaction of engineered Cys with MTSEA; assay type: cell-based; settings: MTSEA with ACh (EC80-EC100)
αS266Cβγδ nAChR = αS266Cβγδ nAChR (Mus musculus, UniProt P02716+P04756+P04760, S286C); assay: Rates of reaction of engineered Cys with MTSEA; assay type: cell-based
αL263Cβγδ nAChR = αL263Cβγδ nAChR (Mus musculus, UniProt P02716+P04756+P04760+P09690, L283C); assay: Rates of reaction of engineered Cys with MTSEA; assay type: cell-based; settings: αL263C; MTSEA alone; component not specified, classed slow
αI274Cβγδ nAChR = αI274Cβγδ nAChR (Mus musculus, UniProt P02716+P04756+P04760, I294C); assay: Rates of reaction of engineered Cys with MTSEA; assay type: cell-based; settings: MTSEA with ACh (EC80-EC100)
αP265Cβγδ nAChR = αP265Cβγδ nAChR (Mus musculus, UniProt P02716+P04756+P04760, P285C); assay: Rates of reaction of engineered Cys with MTSEA; assay type: cell-based; settings: MTSEA with ACh (EC80-EC100)
αT267Cβγδ nAChR = αT267Cβγδ nAChR (Mus musculus, UniProt P02716+P04756+P04760, T287C); assay: Rates of reaction of engineered Cys with MTSEA; assay type: cell-based; settings: MTSEA with ACh (EC80-EC100)
αP272Cβγδ nAChR = αP272Cβγδ nAChR (Mus musculus, UniProt P02716+P04756+P04760, P292C); assay: Rates of reaction of engineered Cys with MTSEA; assay type: cell-based; settings: MTSEA with ACh (EC80-EC100)
αG275Cβγδ nAChR = αG275Cβγδ nAChR (Mus musculus, UniProt P02716+P04756+P04760, G295C); assay: Rates of reaction of engineered Cys with MTSEA; assay type: cell-based; settings: MTSEA with ACh (EC80-EC100)
αI264Cβγδ nAChR = αI264Cβγδ nAChR (Mus musculus, UniProt P02716+P04756+P04760, I284C); assay: Rates of reaction of engineered Cys with MTSEA; assay type: cell-based; settings: MTSEA with ACh (EC80-EC100)

αS268Cβγδ nAChR, sequence (P04756 21-457 S288C): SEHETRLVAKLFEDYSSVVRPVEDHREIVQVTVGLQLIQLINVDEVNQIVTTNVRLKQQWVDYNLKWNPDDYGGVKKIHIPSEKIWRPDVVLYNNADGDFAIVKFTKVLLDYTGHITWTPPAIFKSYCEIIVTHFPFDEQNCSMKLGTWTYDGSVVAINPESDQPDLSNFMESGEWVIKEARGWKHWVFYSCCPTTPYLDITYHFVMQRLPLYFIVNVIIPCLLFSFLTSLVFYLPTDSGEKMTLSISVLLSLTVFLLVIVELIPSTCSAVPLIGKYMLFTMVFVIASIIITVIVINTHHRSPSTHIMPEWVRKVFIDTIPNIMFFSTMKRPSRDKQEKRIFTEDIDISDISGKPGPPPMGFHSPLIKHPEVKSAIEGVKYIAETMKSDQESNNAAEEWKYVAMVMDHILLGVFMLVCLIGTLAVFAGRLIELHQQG
αS268Cβγδ nAChR, sequence (P09690 24-501 partner): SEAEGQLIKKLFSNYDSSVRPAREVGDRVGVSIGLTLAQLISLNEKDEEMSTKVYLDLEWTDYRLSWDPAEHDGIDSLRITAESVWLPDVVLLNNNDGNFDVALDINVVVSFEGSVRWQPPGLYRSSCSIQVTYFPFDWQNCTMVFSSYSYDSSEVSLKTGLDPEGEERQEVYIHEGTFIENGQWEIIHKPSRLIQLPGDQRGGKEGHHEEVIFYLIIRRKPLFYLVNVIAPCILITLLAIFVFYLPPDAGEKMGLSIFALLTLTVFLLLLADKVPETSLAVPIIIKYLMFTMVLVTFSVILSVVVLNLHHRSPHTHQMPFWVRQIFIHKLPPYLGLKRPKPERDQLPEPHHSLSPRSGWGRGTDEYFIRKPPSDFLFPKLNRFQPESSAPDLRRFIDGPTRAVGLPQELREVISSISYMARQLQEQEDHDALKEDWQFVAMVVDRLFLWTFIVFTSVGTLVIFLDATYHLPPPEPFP
αS268Cβγδ nAChR, sequence (P04760 23-519): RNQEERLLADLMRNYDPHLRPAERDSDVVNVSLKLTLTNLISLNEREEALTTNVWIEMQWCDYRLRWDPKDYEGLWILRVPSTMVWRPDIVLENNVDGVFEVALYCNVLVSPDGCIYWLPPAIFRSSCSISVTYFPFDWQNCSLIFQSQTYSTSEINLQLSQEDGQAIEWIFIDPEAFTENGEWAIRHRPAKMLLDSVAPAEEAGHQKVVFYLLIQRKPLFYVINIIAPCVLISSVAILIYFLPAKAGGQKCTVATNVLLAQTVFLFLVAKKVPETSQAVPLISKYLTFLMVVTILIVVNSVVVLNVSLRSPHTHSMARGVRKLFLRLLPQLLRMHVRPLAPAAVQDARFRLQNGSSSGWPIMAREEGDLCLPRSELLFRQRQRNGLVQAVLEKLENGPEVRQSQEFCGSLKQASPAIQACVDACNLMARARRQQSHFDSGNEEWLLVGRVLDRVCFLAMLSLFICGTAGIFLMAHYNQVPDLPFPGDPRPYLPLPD
αS268Cβγδ nAChR, sequence (P02716 25-520): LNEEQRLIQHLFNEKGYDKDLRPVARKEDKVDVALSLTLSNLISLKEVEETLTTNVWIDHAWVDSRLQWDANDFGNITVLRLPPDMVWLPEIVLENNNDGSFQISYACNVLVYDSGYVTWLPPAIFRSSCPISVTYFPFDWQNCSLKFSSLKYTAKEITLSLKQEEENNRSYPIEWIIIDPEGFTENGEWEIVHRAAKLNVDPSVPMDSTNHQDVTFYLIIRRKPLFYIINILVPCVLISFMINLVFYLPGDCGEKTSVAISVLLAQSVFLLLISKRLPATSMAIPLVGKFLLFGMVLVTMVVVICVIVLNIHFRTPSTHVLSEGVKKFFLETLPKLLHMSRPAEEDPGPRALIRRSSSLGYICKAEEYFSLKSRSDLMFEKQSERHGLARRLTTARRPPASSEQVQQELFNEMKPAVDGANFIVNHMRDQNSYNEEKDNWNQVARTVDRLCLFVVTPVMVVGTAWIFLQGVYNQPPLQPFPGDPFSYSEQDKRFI
αS266Cβγδ nAChR, sequence (P04756 21-457 S286C): as the sequence (P04756 21-457 S288C) above, with S266C, C268S counted along it
αS266Cβγδ nAChR, sequence (P09690 24-501 partner): as the sequence (P09690 24-501 partner) above
αS266Cβγδ nAChR, sequence (P04760 23-519): as the sequence (P04760 23-519) above
αS266Cβγδ nAChR, sequence (P02716 25-520, stated change not applied): as the sequence (P02716 25-520) above

SMILES	% increase of subsequent ACh induced current amplitude (αS269Cβγδ nAChR) [%]	% increase of subsequent ACh induced current amplitude (αS268Cβγδ nAChR; MTSES 5 mM, 2 min, ACh EC30-70) [%]	effect of MTSES applied after MTSEA on subsequent ACh induced currents (αS268Cβγδ nAChR; compared to MTSES applied alone)	effect of MTSES application on ACh induced currents ([1]; MTSES 5 mM)	τ in the presence of ACh, second order reaction rate constant (αV271Cβγδ nAChR)	τ in the presence of ACh, second order reaction rate constant (αE262Cβγδ nAChR)	τ, second order reaction rate constant (αS266Cβγδ nAChR; MTSEA applied in the absence of ACh)	τ in the presence of ACh, second order reaction rate constant (αS266Cβγδ nAChR; MTSEA with ACh (EC80-EC100))	second-order rate constant (αL263Cβγδ nAChR)	τ in the presence of ACh, second order reaction rate constant (αI274Cβγδ nAChR)	τ in the presence of ACh, second order reaction rate constant (αP265Cβγδ nAChR)	reaction of MTSEA at this position (successive MTSEA then MTSES application) (αS268Cβγδ nAChR; MTSEA 2 mM, 2 min followed by MTSES 5 mM, 2 min on the same oocyte)	τ in the presence of ACh, second order reaction rate constant (αT267Cβγδ nAChR)	τ in the presence of ACh, second order reaction rate constant (αP272Cβγδ nAChR)	τ in the presence of ACh, second order reaction rate constant (αG275Cβγδ nAChR) [M⁻¹ s⁻¹]	effect of MTSEA application on ACh induced currents ([1]; MTSEA 2 mM, absence of ACh, αS268C)	τ in the presence of ACh, second order reaction rate constant (αI264Cβγδ nAChR) [M⁻¹ s⁻¹]
CS(=O)(=O)SCCS(=O)(=O)[O-].[Na+] [MTSES, methanethiosulfonate ethylsulfonate]	177 ± 37	85 ± 12	similarly increased subsequent ACh induced currents	no functional effect	–	–	–	–	–	–	–	–	–	–	–	–	–
CS(=O)(=O)SCCN [MTSEA, methanethiosulfonate ethylammonium]	–	–	–	–	398 ± 73*** M^-1s^-1	23,000 ± 2,100** M^-1s^-1	12,200 ± 2,200 M^-1s^-1	6,970 ± 1,800 M^-1s^-1	< 1,000 M^-1s^-1	8.7 ± 2.6*** M^-1s^-1	3,940 ± 620*** M^-1s^-1	does not react at this position	5,450 ± 86*** M^-1s^-1	426 ± 66* M^-1s^-1	22.2 ± 3.3	no effect	22.8 ± 6.5
